Drawing on US6518423B1, “Benzopiperidine derivatives” (Eisai Co., Ltd., priority 1996, dated 2003), this text covers melting point for 89 compounds.

SMILES strings stand for the structures. Where only a bound is given, the exact number is not on record here.

As a reminder, the melting point is the temperature, or range, at which the solid turns liquid.

Consider `CCc1nccn1Cc1ccc2c(c1)Nc1nccnc1S2`, for which the melting point was in the range of 230 to 231 °C.
Under `FC(F)(F)c1nccn1Cc1ccc2c(c1)Nc1nccnc1S2` stands 231 to 233 °C.
Consider `c1ccc(-c2cn(Cc3ccc4c(c3)Nc3nccnc3S4)cn2)cc1`, for which the melting point was in the range of 216 to 218 °C.
With `C/C(=C\c1ncn(Cc2ccc3c(c2)Nc2nccnc2S3)c1C)C(N)=O` the figure was 280 °C (dec.).
`C/C(=C\c1ncn(Cc2ccc3c(c2)Nc2nccnc2S3)c1C)C(=O)O` displayed a melting point above 290 °C.
Under `CC/C(=C\c1c(C)ncn1Cc1ccc2c(c1)Nc1nccnc1S2)C(=O)O` stands 172 °C; under `C/C(O)=C(\C#N)C(=O)Nc1ccc(-c2cn(Cc3ccc4c(c3)Nc3nccnc3S4)cn2)cc1`, 259 to 261 °C; under `OCc1nccn1Cc1ccc2c(c1)Nc1nccnc1S2`, 247 to 250 °C.
Under `O=C(O)c1ccc(C(O)c2nccn2Cc2ccc3c(c2)Nc2nccnc2S3)cc1` (centres unmarked) stands 240 to 241 °C; under `Cc1ncn(Cc2ccc3c(c2)Nc2nccnc2S3)c1C(C)O` (centres unmarked), 178 to 182 °C; under `O=C(O)C1CC2(C1)C1CCCC2CN(Cc2ccc3c(c2)Nc2nccnc2S3)C1` (centres unmarked), 98 to 101 °C.
Under `c1cnc2ncn(Cc3ccc4c(c3)Nc3nccnc3S4)c2c1` stands 265 °C (dec.); under `c1ccn(Cc2ccc3c(c2)Nc2nccnc2S3)c1`, 197 to 198 °C; under `c1cc(CCc2ccc3c(c2)Nc2nccnc2S3)ccn1`, 179 to 183 °C.
In turn, `OC(c1cncnc1)c1ccc2c(c1)Nc1nccnc1S2` (centres unmarked) returned a melting point of 218 to 221 °C.
`OC(c1ccc2c(c1)Nc1nccnc1S2)c1ncccn1` (centres unmarked) had a melting point of 105 to 107 °C.
With `CC(c1cccnc1)c1ccc2c(c1)Nc1nccnc1S2` (centres unmarked) the figure was 180 to 181 °C; with `CCOC(=O)/C=C/c1cccc(C(O)c2ccc3c(c2)Nc2nccnc2S3)n1` (centres unmarked), 160 to 170 °C (dec.); with `OC(CCc1ccccc1)c1ccc2c(c1)Nc1nccnc1S2` (centres unmarked), 156 to 158 °C.
With `O=C(O)CC1(O)C2CCCCCC1CN(Cc1ccc3c(c1)Nc1nccnc1S3)C2` (centres unmarked) the figure was 217 to 218 °C (dec.).
Compound `CN(C)S(=O)(=O)NCC1C2CCCC1CN(Cc1ccc3c(c1)Nc1nccnc1S3)C2` (centres unmarked) yielded a melting point of 215 to 219 °C.
Under `CC(C(=O)O)c1ccc(NCc2ccc3c(c2)Nc2nccnc2S3)cc1.Cl` (centres unmarked) stands 228 to 233 °C.
On to `O=C(NCc1ccc2c(c1)Nc1nccnc1S2)c1cccnc1`, for which the melting point was 243 to 245 °C (dec.).
The compound `O=C(Nc1nccs1)c1ccc2c(c1)Nc1nccnc1S2` displayed a melting point of 320 to 322 °C.
`CCNC(=O)c1ccc2c(c1)Nc1nccnc1S2` displayed a melting point of 274 to 275 °C.
With `CN(C)c1ncnc2ncn(Cc3ccc4c(c3)Nc3nccnc3S4)c12` the figure was 265 to 268 °C; with `CN(C)c1ncnc2c1nc(C(F)(F)F)n2Cc1ccc2c(c1)Nc1nccnc1S2`, 231 to 233 °C; with `O=c1[nH]cnc2ncn(Cc3ccc4c(c3)Nc3nccnc3S4)c12`, above 275 °C.
In the case of `Cc1nc2cncnc2n1Cc1ccc2c(c1)Nc1nccnc1S2`, the melting point is 191 to 193 °C.
With `O=C(O)C1CCN(c2ncnc3c2ncn3Cc2ccc3c(c2)Nc2nccnc2S3)CC1` the figure was 238 to 240 °C; with `c1ccc(CN2CCN(c3ncnc4c3ncn4Cc3ccc4c(c3)Nc3nccnc3S4)CC2)cc1`, 213 to 214 °C.
With `NCCN1CCN(c2ncnc3c2ncn3Cc2ccc3c(c2)Nc2nccnc2S3)CC1` the figure was 226 to 229 °C; with `CCc1ncnc2ncn(Cc3ccc4c(c3)Nc3nccnc3S4)c12`, above 275 °C.
With `CC(C)(O)c1ncnc2ncn(Cc3ccc4c(c3)Nc3nccnc3S4)c12` the figure was 268 to 271 °C.
`CC(C)(O)c1ncnc2c1ncn2Cc1ccc2c(c1)Nc1nccnc1O2` showed a melting point of 143 to 145 °C.
With `CC(O)c1ncnc2c1ncn2Cc1ccc2c(c1)Nc1nccnc1S2` (centres unmarked) the figure was 210 to 212 °C.
The compound `Cl.N=C(N)c1ccc2c(c1)Nc1nccnc1S2` came in with a melting point above 280 °C.
Under `Cl.N=C(N)Cc1ccc2c(c1)Nc1nccnc1S2` stands above 280 °C; under `N/C(Cc1ccc2c(c1)Nc1nccnc1S2)=N\S(=O)(=O)C(F)(F)F`, 200 to 202 °C.
With `N/C(Cc1ccc2c(c1)Nc1nccnc1S2)=N\S(=O)(=O)c1ccccc1` the figure was 206 to 207 °C; with `CN1CCCN=C1Cc1ccc2c(c1)Nc1nccnc1S2.Cl`, above 280 °C; with `Cl.c1ccc(CN2CCCN=C2Cc2ccc3c(c2)Nc2nccnc2S3)cc1`, 153 to 155 °C (dec.).
On to `Cl.OC1CN=C(Cc2ccc3c(c2)Nc2nccnc2S3)NC1` (centres unmarked), for which the melting point fell in the range of 156 to 163 °C.
Under `N#C/N=C(/Cc1ccc2c(c1)Nc1nccnc1S2)NCc1ccccn1` stands 195 to 196 °C.
As for `N#CN=C(Cc1ccc2c(c1)Nc1nccnc1S2)NCc1ccc(S(N)(=O)=O)cc1`, the melting point lay within 241 to 245 °C.
`Cl.N=C(N)NCc1ccc2c(c1)Nc1nccnc1S2`: the melting point was in the range of 279 to 282 °C.
`COC(=O)CC1C2CCCC1CN(Cc1ccc3c(c1)N(C(=O)OC)c1nccnc1S3)C2` (centres unmarked) returned a melting point of 106 to 108 °C.
For `COC(=O)CC1C2CCCC1CN(Cc1ccc3c(c1)N(C(C)=O)c1nccnc1S3)C2` (centres unmarked), the melting point lay in the range of 160 to 162 °C.
Under `CC(=O)NCCC1CCN(Cc2ccc3c(c2)Nc2nccnc2S3)CC1` stands 194 to 196 °C; under `COC1CCN(Cc2ccc3c(c2)Nc2nccnc2S3)CC1`, 172 to 174 °C; under `O=C1CCC2(CCN(Cc3ccc4c(c3)Nc3nccnc3S4)CC2)O1`, 199 to 203 °C.
Under `NC(=O)C1CCCN1Cc1ccc2c(c1)Nc1nccnc1S2` (centres unmarked) stands 194 to 197 °C.
Turning to `CS(=O)(=O)N1CCN(Cc2ccc3c(c2)Nc2nccnc2S3)CC1`, the melting point lay in the range of 221 to 222 °C.
The compound `CN(C)S(=O)(=O)NC1CCN(Cc2cnc3c(c2)Nc2nccnc2S3)CC1` showed a melting point of 205 to 210 °C.
In the case of `CNS(=O)(=O)NCC1CN(Cc2ccc3c(c2)Nc2nccnc2S3)C1`, the melting point was in the range of 173 to 176 °C.
In the case of `O=C(CCCC1CCN(Cc2ccc3c(c2)Nc2nccnc2S3)CC1)Nc1nnn[nH]1`, the melting point is 190 to 191 °C.
With `CN1C2CCC1CC(NC(=O)CC1CC3(CCN(Cc4ccc5c(c4)Nc4nccnc4S5)CC3)C1)C2` (centres unmarked) the figure was 181 to 184 °C.
For the compound `CN(C)c1c(N2CCN(Cc3ccc4c(c3)Nc3nccnc3S4)CC2)c(=O)c1=O`, the melting point is 296 to 300 °C (dec.).
Under `CS(=O)(=O)N1CCCN(Cc2ccc3c(c2)Nc2nccnc2S3)CC1` stands 158 to 160 °C; under `O=S(=O)(CCC1CCN(Cc2ccc3c(c2)Nc2nccnc2S3)CC1)N1CCOCC1`, 193 to 194 °C; under `O=C(O)CC(=O)N1CCC(NCc2ccc3c(c2)Nc2nccnc2S3)CC1`, 167 to 170 °C.
On to `O=C(O)CCN1CCC(NCc2ccc3c(c2)Nc2nccnc2S3)CC1`, for which the melting point lay in the range of 130 to 134 °C.
`O=C(O)/C=C1\CCCN(Cc2ccc3c(c2)Nc2nccnc2S3)C1` yielded a melting point of 200 to 203 °C.
Under `O=C(O)COc1ccc(C2CCN(Cc3ccc4c(c3)Nc3nccnc3S4)CC2)cc1` stands 258 to 262 °C; under `O=C(O)Cc1cccc(C2CCN(Cc3ccc4c(c3)Nc3nccnc3S4)CC2)c1`, 130 to 132 °C; under `O=C(O)Cc1ccccc1C1CCN(Cc2ccc3c(c2)Nc2nccnc2S3)CC1`, 152 to 154 °C.
With `CC(C)(CC(=O)O)CC1CCN(Cc2ccc3c(c2)Nc2nccnc2S3)CC1`, the melting point is 230 to 232 °C.
Compound `CC(CCC1(CO)CCN(Cc2ccc3c(c2)Nc2nccnc2S3)CC1)C(=O)O` (centres unmarked) displayed a melting point of 105 to 110 °C.
With `CCCCC1(CC(=O)O)CC2(CCN(Cc3ccc4c(c3)Nc3nccnc3S4)CC2)C1` the figure was 133 to 135 °C.
With `O=C(O)C(F)=C1CCN(Cc2ccc3c(c2)Nc2nccnc2S3)CC1` the figure was 167 to 173 °C; with `COc1cc(C2CCN(Cc3ccc4c(c3)Nc3nccnc3S4)CC2)ccc1CC(=O)O`, 171 to 177 °C (dec.).
Under `O=C(O)C=C1CCN(Cc2ccc3c(c2)Nc2nccnc2S3)CC1` stands 214 to 216 °C.
In the case of `O=C(O)CC1=CCN(Cc2ccc3c(c2)Nc2nccnc2S3)CC1`, the melting point was in the range of 124 to 128 °C.
`O=C(O)C1(c2ccccc2)CCN(Cc2ccc3c(c2)Nc2nccnc2S3)CC1` yielded a melting point above 297 °C.
Consider `CN1c2ccccc2Nc2nccnc21`, for which the melting point was in the range of 229 to 231 °C.
Under `COCN1c2ccccc2Nc2nccnc21` stands 185 to 188 °C; under `CN1c2ccc(/C=C/C(=O)O)cc2Nc2nccnc21`, 275 °C; under `CN1c2ccc(C(O)c3nccs3)cc2Nc2nccnc21` (centres unmarked), 203 to 204 °C.
For `CN1c2ccc(C(O)c3cccs3)cc2Nc2nccnc21` (centres unmarked), the melting point was above 275 °C.
Consider `CN1c2ccc(C(=O)c3ccccn3)cc2Nc2nccnc21`, for which the melting point fell in the range of 261 to 262 °C.
With `CN1c2ccc(CNC(N)=O)cc2Nc2nccnc21` the figure was above 275 °C; with `CN1c2ccc(C#CC(=O)O)cc2Nc2nccnc21`, above 275 °C; with `c1cnc(NCc2ccc3c(c2)Nc2nccnc2S3)nc1`, 232 to 235 °C.
On to `c1ccc(CCNCc2ccc3c(c2)Nc2nccnc2S3)nc1`, for which the melting point lay within 179 to 182 °C.
Under `Cc1cc(C)nc(NCc2ccc3c(c2)Nc2nccnc2S3)c1` stands 162 to 165 °C.
With `CCc1cc(NCc2ccc3c(c2)Nc2nccnc2S3)ccn1`, the melting point was in the range of 148 to 152 °C.
`CCOC(=O)COc1ccc(NCc2ccc3c(c2)Nc2nccnc2S3)cn1` registered a melting point of 230 to 235 °C.
With `CCOC(=O)CCCCCOc1ccc(NCc2ccc3c(c2)Nc2nccnc2S3)cn1` the figure was 105 to 108 °C; with `O=C(c1ccccc1)N(Cc1ccc2c(c1)Nc1nccnc1S2)c1cccnc1`, 178 to 182 °C.
